A value given as a limit tells only on which side of the number the result lay.

For 29 compounds, IC50 results are on record in patent publication US20090311217A1, “3-SUBSTITUTED-1H-INDOLE COMPOUNDS, THEIR USE AS MTOR KINASE AND PI3 KINASE INHIBITORS, AND THEIR SYNTHESES” (priority 2008, published 2009).

PI3K-alpha, sequence (P42336 whole entry, species assumed): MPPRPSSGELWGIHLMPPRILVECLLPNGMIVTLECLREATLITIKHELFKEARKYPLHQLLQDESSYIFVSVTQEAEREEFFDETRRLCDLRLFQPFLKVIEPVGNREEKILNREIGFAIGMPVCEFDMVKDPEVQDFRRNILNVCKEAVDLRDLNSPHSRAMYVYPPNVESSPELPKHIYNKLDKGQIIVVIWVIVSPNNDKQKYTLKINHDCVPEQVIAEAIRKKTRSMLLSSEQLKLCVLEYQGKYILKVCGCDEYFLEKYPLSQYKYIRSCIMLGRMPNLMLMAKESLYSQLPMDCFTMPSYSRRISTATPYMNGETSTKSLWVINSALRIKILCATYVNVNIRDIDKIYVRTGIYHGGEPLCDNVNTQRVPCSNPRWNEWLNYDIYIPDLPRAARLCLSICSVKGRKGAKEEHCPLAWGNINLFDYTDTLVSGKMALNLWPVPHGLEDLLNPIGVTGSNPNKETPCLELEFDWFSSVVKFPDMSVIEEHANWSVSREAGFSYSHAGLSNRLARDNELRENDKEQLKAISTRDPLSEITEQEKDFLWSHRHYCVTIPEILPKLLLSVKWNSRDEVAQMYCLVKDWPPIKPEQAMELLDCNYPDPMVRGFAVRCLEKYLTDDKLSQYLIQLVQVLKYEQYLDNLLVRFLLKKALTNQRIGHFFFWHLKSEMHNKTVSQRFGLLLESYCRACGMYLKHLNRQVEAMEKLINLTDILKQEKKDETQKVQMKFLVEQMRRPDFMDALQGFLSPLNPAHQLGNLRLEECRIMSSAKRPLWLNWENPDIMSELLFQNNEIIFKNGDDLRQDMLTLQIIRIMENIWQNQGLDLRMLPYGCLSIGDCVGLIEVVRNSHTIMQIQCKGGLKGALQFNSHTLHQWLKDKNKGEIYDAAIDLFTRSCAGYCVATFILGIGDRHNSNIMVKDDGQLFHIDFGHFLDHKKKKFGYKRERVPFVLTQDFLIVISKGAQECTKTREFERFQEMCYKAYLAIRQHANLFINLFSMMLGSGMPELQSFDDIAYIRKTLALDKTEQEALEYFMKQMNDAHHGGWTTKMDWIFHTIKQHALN
PI3K-alpha, sequence (P27986 whole entry partner, species assumed): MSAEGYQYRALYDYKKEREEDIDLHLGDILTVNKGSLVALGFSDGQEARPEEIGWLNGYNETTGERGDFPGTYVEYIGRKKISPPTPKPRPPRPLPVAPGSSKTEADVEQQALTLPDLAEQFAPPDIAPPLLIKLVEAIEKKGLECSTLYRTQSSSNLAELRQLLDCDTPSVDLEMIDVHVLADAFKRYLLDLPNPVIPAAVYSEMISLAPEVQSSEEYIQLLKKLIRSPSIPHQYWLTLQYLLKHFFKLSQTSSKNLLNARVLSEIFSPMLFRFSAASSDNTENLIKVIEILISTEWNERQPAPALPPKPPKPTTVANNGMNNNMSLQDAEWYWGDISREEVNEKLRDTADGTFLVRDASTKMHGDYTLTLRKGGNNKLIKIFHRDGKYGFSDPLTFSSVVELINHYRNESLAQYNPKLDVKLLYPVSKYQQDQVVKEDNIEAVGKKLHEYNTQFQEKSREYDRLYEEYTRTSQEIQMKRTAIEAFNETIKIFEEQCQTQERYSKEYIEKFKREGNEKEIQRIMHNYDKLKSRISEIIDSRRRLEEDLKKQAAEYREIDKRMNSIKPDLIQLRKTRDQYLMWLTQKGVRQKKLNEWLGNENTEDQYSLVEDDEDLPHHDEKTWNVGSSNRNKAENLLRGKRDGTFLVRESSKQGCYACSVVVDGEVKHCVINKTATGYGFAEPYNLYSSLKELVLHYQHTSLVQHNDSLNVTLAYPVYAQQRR

This test concerns the target PI3K-alpha (Homo sapiens, UniProt P42336). Briefly: PI3K-alpha fluorescence polarization assay. As to conditions: read-out: PI3Kα Avg. IC50. The class given is biochemical. For orientation: Polarisation of emitted light reports the rotation of a fluorescent probe.
Broadly, the IC50 is the point on the concentration scale where inhibition reaches its midpoint. Turning to `COc1ccc2c(c1)c(C=C1Oc3c(ccc(O)c3O)C1=O)cn2C` [Example 85, 6,7-dihydroxy-2-[(5-methoxy-1-methyl-1H-indol-3-yl)methylene]-1-benzofuran-3(2H)-one], the IC50 worked out at 1.15 µM.
To `COc1ccc2c(c1)c(C=C1Oc3c(ccc(O)c3O)C1=O)c(C)n2CCCCN1CCN(C)CC1` [Example 144, 6,7-dihydroxy-2-({5-methoxy-2-methyl-1-[4-(4-methylpiperazin-1-yl)butyl]-1H-indol-3-yl}methylene)-1-benzofuran-3(2H)-one] belongs 1.6 µM; to `COc1ccc2c(c1)c(C=C1Oc3c(ccc(O)c3O)C1=O)c(C)n2CCCCN1CCOCC1` [Example 145, 6,7-dihydroxy-2-{[5-methoxy-2-methyl-1-(4-morpholin-4-ylbutyl)-1H-indol-3-yl]methylene}-1-benzofuran-3(2H)-one], 0.825 µM.
To `COc1ccc2c(c1)c(C=C1Oc3c(ccc(O)c3O)C1=O)c(C)n2CCCCN1CCN(CCO)CC1` [Example 146, 6,7-dihydroxy-2-[(1-{4-[4-(2-hydroxyethyl)piperazin-1-yl]butyl}-5-methoxy-2-methyl-1H-indol-3-yl)methylene]-1-benzofuran-3(2H)-one] belongs 0.85 µM; to `Cc1c(C=C2Oc3cc(O)cc(O)c3C2=O)c2cc(F)ccc2n1C` [Example 235, 2-[(5-fluoro-1,2-dimethyl-1H-indol-3-yl)methylene]-4,6-dihydroxy-1-benzofuran-3(2H)-one], 4.03 µM; to `Cc1[nH]c2ccccc2c1/C=C1\Sc2ccccc2C1=O` [Example 272, (2Z)-2-[(2-methyl-1H-indol-3-yl)methylene]-1-benzothiophen-3(2H)-one], 1.32 µM.
To `O=C1/C(=C/c2c[nH]c3ccccc23)Sc2ccccc21` [Example 273, (2Z)-2-(1H-indol-3-ylmethylene)-1-benzothiophen-3(2H)-one] belongs 9.62 µM; to `Cn1c(-c2ccccc2)c(/C=C2\Sc3ccccc3C2=O)c2ccccc21` [Example 275, (2Z)-2-[(1-methyl-2-phenyl-1H-indol-3-yl)methylene]-1-benzothiophen-3(2H)-one], 2.8 µM; to `O=C1/C(=C/c2c(-c3ccc4ccccc4c3)[nH]c3ccccc23)Sc2ccccc21` [Example 276, (2Z)-2-{[2-(2-naphthyl)-1H-indol-3-yl]methylene}-1-benzothiophen-3(2H)-one], over 10 µM.
Take `Cn1cc(/C=C2\Sc3ccccc3C2=O)c2ccccc21` [Example 278, (2Z)-2-[(1-methyl-1H-indol-3-yl)methylene]-1-benzothiophen-3(2H)-one]: the IC50 is 3.1 µM.
The same measure for `Cc1ccc2c(/C=C3\Sc4ccccc4C3=O)c[nH]c2c1` [Example 279, (2Z)-2-[(6-methyl-1H-indol-3-yl)methylene]-1-benzothiophen-3(2H)-one]: over 10 µM; for `Cc1cccc2c(/C=C3\Sc4ccccc4C3=O)c[nH]c12` [Example 280, (2Z)-2-[(7-methyl-1H-indol-3-yl)methylene]-1-benzothiophen-3(2H)-one]: 4.56 µM.
For the compound `O=C1/C(=C/c2c[nH]c3ccccc23)Sc2ccc(Cl)cc21` [Example 281, (2Z)-5-chloro-2-(1H-indol-3-ylmethylene)-1-benzothiophen-3(2H)-one], the half-inhibitory concentration (IC50) was over 10 µM.
The same measure for `O=C1/C(=C/c2cn(Cc3ccccc3)c3ccccc23)Sc2ccccc21` [Example 282, (2Z)-2-[(1-benzyl-1H-indol-3-yl)methylene]-1-benzothiophen-3(2H)-one]: 1.42 µM; for `O=C1/C(=C/c2c(-c3ccccc3)[nH]c3ccccc23)Sc2ccc(Cl)cc21` [Example 283, (2Z)-5-chloro-2-[(2-phenyl-1H-indol-3-yl)methylene]-1-benzothiophen-3(2H)-one]: over 10 µM; for `O=C1/C(=C/c2c(-c3ccc(Cl)cc3)[nH]c3ccccc23)Sc2ccc(Cl)cc21` [Example 284, (2Z)-5-chloro-2-{[2-(4-chlorophenyl)-1H-indol-3-yl]methylene}-1-benzothiophen-3(2H)-one]: over 10 µM.
Turning to `O=C1/C(=C/c2c(-c3ccc(F)cc3)[nH]c3ccccc23)Sc2ccc(Cl)cc21` [Example 286, (2Z)-5-chloro-2-{[2-(4-fluorophenyl)-1H-indol-3-yl]methylene}-1-benzothiophen-3(2H)-one], the IC50 is over 10 µM.
To `O=C1/C(=C/c2cn(Cc3ccccc3)c3ccccc23)Sc2ccc(Cl)cc21` [Example 287, (2Z)-2-[(1-benzyl-1H-indol-3-yl)methylene]-5-chloro-1-benzothiophen-3(2H)-one] belongs over 10 µM; to `O=C1/C(=C/c2c[nH]c3ccc(OCc4ccccc4)cc23)Sc2ccc(Cl)cc21` [Example 288, (2Z)-2-{[5-(benzyloxy)-1H-indol-3-yl]methylene}-5-chloro-1-benzothiophen-3(2H)-one], over 10 µM.
The same measure for `Cc1ccc2c(c1)C(=O)/C(=C/c1c[nH]c3ccccc13)S2` [Example 289, (2Z)-2-(1H-indol-3-ylmethylene)-5-methyl-1-benzothiophen-3(2H)-one]: 10.7 µM; for `Cc1ccc2c(c1)C(=O)/C(=C/c1c(-c3ccccc3)[nH]c3ccccc13)S2` [Example 290, (2Z)-5-methyl-2-[(2-phenyl-1H-indol-3-yl)methylene]-1-benzothiophen-3(2H)-one]: 9.17 µM.
As to `Cc1ccc2c(c1)C(=O)/C(=C/c1c(-c3ccc(Cl)cc3)[nH]c3ccccc13)S2` [Example 291, (2Z)-2-{[2-(4-chlorophenyl)-1H-indol-3-yl]methylene}-5-methyl-1-benzothiophen-3(2H)-one], the IC50 was over 10 µM.
To `Cc1ccc2c(c1)C(=O)/C(=C/c1c[nH]c3cc(C)ccc13)S2` [Example 292, (2Z)-5-methyl-2-[(6-methyl-1H-indol-3-yl)methylene]-1-benzothiophen-3(2H)-one] belongs over 10 µM.
To `Cc1ccc2c(c1)C(=O)/C(=C/c1c[nH]c3c(C)cccc13)S2` [Example 293, (2Z)-5-methyl-2-[(7-methyl-1H-indol-3-yl)methylene]-1-benzothiophen-3(2H)-one] belongs over 10 µM; to `Cc1ccc2c(c1)C(=O)/C(=C/c1c[nH]c3ccc(Br)cc13)S2` [Example 294, (2Z)-2-[(5-bromo-1H-indol-3-yl)methylene]-5-methyl-1-benzothiophen-3(2H)-one], over 10 µM.
The same measure for `Cc1ccc2c(c1)C(=O)/C(=C/c1c[nH]c3ccc(OCc4ccccc4)cc13)S2` [Example 295, (2Z)-2-{[5-(benzyloxy)-1H-indol-3-yl]methylene}-5-methyl-1-benzothiophen-3(2H)-one]: over 10 µM.
On to `Cc1ccc2c(c1)C(=O)C(=Cc1c(-c3ccc4ccccc4c3)[nH]c3ccccc13)S2` [Example 296, 5-methyl-2-{[2-(2-naphthyl)-1H-indol-3-yl]methylene}-1-benzothiophen-3(2H)-one], for which the IC50 stood at 12 µM.
To `Cc1ccc2c(c1)C(=O)C(=Cc1c(-c3ccc(F)cc3)[nH]c3ccccc13)S2` [Example 297, 2-{[2-(4-fluorophenyl)-1H-indol-3-yl]methylene}-5-methyl-1-benzothiophen-3(2H)-one] belongs over 10 µM; to `Cc1ccc2c(c1)C(=O)C(=Cc1c(C)[nH]c3ccc([N+](=O)[O-])cc13)S2` [Example 298, 5-methyl-2-[(2-methyl-5-nitro-1H-indol-3-yl)methylene]-1-benzothiophen-3(2H)-one], 9.19 µM.
